Test system: Hippocampal Cultures
Test: Neuroprotection from heavy metal toxicity, CFDA assay
Type: cell-based, rat
Conditions: for EC50: Rattus norvegicus
Source text: All compounds were screened with dissociated hippocampal cultures derived from embryonic day 18 rats as the primary test system. With this preparation, primary neurons were used to test for prevention of heavy metal toxicity by the disclosed compounds. In brief, hippocampal tissue was obtained commercially through Brain Bits (Springfield, Ill.) and cultures prepared as previously described (Brewer, G. J. Serum-free B27/neurobasal medium supports differentiated growth of neurons from the striatum, substantia nigra, septum, cerebral cortex, cerebellum and dentate gyms, J. Neurosci. Res., 1995, 42, 674-683). The hippocampal neurons were platted at low density (10,000 cell/well) in a 96-well format and maintained in serum-free medium consisting of Neurobasal Medium supplemented with B27 and GlutaMAX (Gibco). Pre-coated poly-L-lysine coated plates are used because of the preferential adherence and survival of hippocampal neurons on this matrix support. Heavy metal toxicity is associated with the occurrence of seizures ([…] et al. Zinc and copper: pharmacological probes and endogenous modulators of neuronal excitability. Pharmacol. Ther. 2006, 111, 567-583). Therefore, the heavy metal toxicity studies serve as another example of the oxidative stress that the disclosed compounds have a protection action against. To establish the dose-dependency of test agents, day 18 hippocampal cultures were utilized to study the toxicity produced after treatment with the heavy metals and neuroprotection after treatment with test compounds. Serving as examples of heavy metal salts for these studies are the following: […] Prior to treatment, the B27/Neural Basal media of the cultures were replaced with B27 neural basal medium without antioxidants for 18 hours. […] Further, the removal of antioxidants in the medium was performed to obtain a significant and reproducible toxic signal for heavy metal treatment of the hippocampal neurons. Toxicity produced by heavy metals is measured by decreases in neuronal viability. Carboxyfluorescein (CFDA) was used a vital stain for all cell toxicity and neuroprotection studies. With the use of the CytoFluor fluorimeter, the CFDA assay was employed to assess the viability of neurons. CFDA is a dye that becomes fluorescent upon cell entry and cleavage by cytosolic esterases (Petroski and Geller. Selective labeling of embryonic neurons cultures on astrocyte monolayers with 5(6)-carboxyfluorescein diacetate [CFDA]. J. Neurosci. Methods 1994, 52, 23-32). Neuronal specificity is obtained relative to astrocytes because the cleaved dye is extruded extracellularlly by glia with time, while dye in neurons remains intracellular. Dose responses to the various heavy metal salts determined the minimal concentration that produced the maximum amount of toxicity. […] All test compounds are dissolved to 10 mM in Dulbecco's phosphate buffered saline (DPBS; Sigma: D-5780) prior to testing. To test for neuroprotection from a heavy metal toxicity, day 11 hippocampal cultures are given a complete change of medium containing 100 μl of Neurobasal medium with B27 that contain no antioxidants. Twenty-four hours after the change in medium, the heavy metal neuroprotection studies are started. […] At the conclusion of the 4 hour incubation period, the dye is removed from the cultures and washed once with 100 μl of DPBS. After removal of the first wash, a second wash of DPBS is added to the culture and then incubated for 30 min to allow the efflux of dye out of glia in the cultures. At the conclusion of the 30 min efflux period, the culture efflux medium is removed and 100 μl of 0.1% triton-X100 in water is added to the cultures before reading at Ex490/Em517 in a CytoFluor fluorimeter. Results are expressed in relative fluorescent units (RFU) and EC50's calculated from the dose response of the test compound.

## NS(=O)(=O)NCC(F)(F)c1ccccc1F [Example 1, 2,2-Difluoro-2-(2-fluorophenyl)-ethyl-1-sulfamide]
Cobalt Chloride hexahydrate 10 μM
  EC50: 100 nM
Copper Acetate monohydrate 10 μM
  EC50: 0.1 nM
Iron sulfate hexahydrate 10 μM
  EC50: 1 nM
Nickel Chloride hexahydrate 10 μM
  EC50: 10 nM
Zinc Acetate dehydrate 1 μM
  EC50: 0.1 nM
Five heavy metal salts at the Table 3 concentrations, CFDA and PI assays
  Prevention of toxicity of 5 heavy metals: prevented the toxicity of 5 heavy metals
